# Experimental data as given in patent US20130337485A1, “ENZYMATIC SYNTHESIS OF ACTIVE PHARMACEUTICAL INGREDIENT AND INTERMEDIATES THEREOF” (LEK PHARMACEUTICALS D.D, priority 2010, published 2013).
# How the values were obtained:
# [1] = target: T1, membrane bound glucose dehydrogenase from E. coli, the Gcd (Escherichia coli, UniProt P15877); assay: Substrate specificity and pH optima of membrane bound glucose dehydrogenase Gcd (DCPIP method); type: biochemical; conditions: for Activity of E. coli BL21(DE3) pET30/Gcd on substrate, lysate / Activity of E. coli BL21(DE3) pET30/Gcd on substrate, resting whole cell: 50 mM substrate, 5 μM PQQ, 10 mM MgCl2
# T1 construct: made in house; host or cells: E. coli BL21(DE3) carrying pET30/Gcd; not purified (resting whole cells or lysate), reconstituted with PQQ and MgCl2
# T1 sequence (P15877 1-796): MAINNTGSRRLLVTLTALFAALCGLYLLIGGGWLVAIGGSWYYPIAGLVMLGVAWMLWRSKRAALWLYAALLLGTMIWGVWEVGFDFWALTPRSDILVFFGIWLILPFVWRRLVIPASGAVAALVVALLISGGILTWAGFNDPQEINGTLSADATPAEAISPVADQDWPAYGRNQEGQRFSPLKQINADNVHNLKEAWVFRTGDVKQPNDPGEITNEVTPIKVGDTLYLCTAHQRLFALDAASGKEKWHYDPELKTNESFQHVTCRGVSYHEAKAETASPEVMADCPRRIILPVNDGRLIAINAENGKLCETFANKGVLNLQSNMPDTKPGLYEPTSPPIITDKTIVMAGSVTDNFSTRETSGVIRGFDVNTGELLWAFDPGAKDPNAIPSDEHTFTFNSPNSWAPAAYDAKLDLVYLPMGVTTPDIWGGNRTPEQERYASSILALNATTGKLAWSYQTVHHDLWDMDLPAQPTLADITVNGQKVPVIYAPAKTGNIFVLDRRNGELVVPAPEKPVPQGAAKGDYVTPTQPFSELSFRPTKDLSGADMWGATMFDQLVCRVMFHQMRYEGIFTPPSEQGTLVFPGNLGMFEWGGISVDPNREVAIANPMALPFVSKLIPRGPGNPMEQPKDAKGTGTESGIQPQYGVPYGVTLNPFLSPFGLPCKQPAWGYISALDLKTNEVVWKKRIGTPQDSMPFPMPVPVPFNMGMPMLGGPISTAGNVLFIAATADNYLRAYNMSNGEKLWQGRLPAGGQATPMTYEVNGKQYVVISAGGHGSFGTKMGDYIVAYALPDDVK
# Protocol: To investigate substrate specificity and pH optima of said E. coli membrane aldose dehydrogenase the above mentioned experiments were performed on the catalyst E. coli BL21 pET30/Gcd.
# [2] = target: T2, E. coli YliI aldose dehydrogenase (Escherichia coli, UniProt P75804, A204V); assay: Substrate specificity and pH optima of E. coli YliI aldose dehydrogenase (DCPIP method); type: biochemical; conditions: for Activity of E. coli BL21(DE3) pET30/Ylil on substrate, resting whole cell: 50 mM substrate, 5 μM PQQ, 10 mM MgCl2
# T2 construct: made in house; host or cells: E. coli BL21(DE3) carrying pET30/YliI; not purified (resting whole cells or cell free lysate), reconstituted with PQQ and MgCl2
# T2 sequence (P75804 21-371 A204V): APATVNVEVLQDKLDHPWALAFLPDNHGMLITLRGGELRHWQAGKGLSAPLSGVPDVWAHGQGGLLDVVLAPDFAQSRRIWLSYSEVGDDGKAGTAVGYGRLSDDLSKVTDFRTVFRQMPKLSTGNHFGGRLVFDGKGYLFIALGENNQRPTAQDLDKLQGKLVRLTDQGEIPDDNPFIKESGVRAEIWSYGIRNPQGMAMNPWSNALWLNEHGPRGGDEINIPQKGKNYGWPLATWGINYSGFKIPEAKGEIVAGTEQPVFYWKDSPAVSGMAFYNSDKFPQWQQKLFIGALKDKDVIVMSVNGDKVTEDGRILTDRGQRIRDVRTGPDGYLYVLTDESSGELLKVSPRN
# Protocol: (§1) Final volume of reaction mixture was 200 μL, all components were dissolved in phosphate buffer pH 8.0.
# (§2) The catalyst E. coli BL21 pET30/YliI culture obtained either as resting whole cell catalyst (obtained undertaking Procedure 1C) or as lysate (as described in Example 2). The initial pH value of reaction mixture was 8.0. All tested solutions were made in triplicates.
# (§3) The second reaction mixture was prepared identically to the above with a sole difference: the pH value of assembled mixture being 6.0 (all compounds of reaction mixture were dissolved in phosphate buffer pH 6.0 and the initial pH value of reaction mixture was thus 6.0). All tested solutions were made in triplicates.
# (§4) Experiment was performed as described in Example 11. In the table below are shown activities of “analyzed material” (abs[mAU min^−1 mg^−1])
# [3] = tested on: whole cell catalyst E. coli BL21 pET30/Gcd; assay: Whole cell catalysis capability in bioreactor using pO2 sensor; type: cell-based; conditions: pH 6.2, 37° C., 5 μM PQQ, 10 mM MgCl2
# Protocol: Laboratory bioreactors Infors ISF100 with maximal volume of 2 L were used for determination of whole cell catalysis capability of E. coli aldose dehydrogenases. The reactors were stirred, aerated, temperature and pH controlled as described below. When whole cell catalysts bearing holo aldose dehydrogenases were exposed to various substrates, unusual consumption of O2 appeared.
# Experiments were performed using whole cell catalyst E. coli BL21 pET30/Gcd (procedure of preparation in described in Example 1, Procedure 1A and moreover in Example 25).
# Whole cell catalysts were dissolved in phosphate buffer (50 mM KH2PO4, 150 mM NaCl, pH 6.2) to concentrations of 5 g/L, 10 g/L and 20 g/L to the final volume ([…] in the bioreactor.
# The initial process parameters before substrate was added were as follows: 37° C., air flow rate 1.0 L/min (1.0 VVM), stirrer speed 1000 rpm, pH 6.2 and the dissolved oxygen concentration was kept at ≧80% of saturation. 5 μM PQQ and 10 mM MgCl2 were provided into bioreactor broth. Feeding solution were 12.5% (v/v) ammonium hydroxide solution and the silicone antifoam compound synperonic antifoam (Sigma, A-5551) which were fed continuously.
# The system described above is very complex in terms of mathematical description of dissolved oxygen levels over the time. On the one hand these are depending on the kLa (vessel properties, stirring, aeration, medium, temperature etc) and enzymatic kinetics on the aldose dehydrogenase on the other hand. In addition the oxygen probe delay kinetics play an important role. We have therefore found empirically, that oxygen consumption in the phase after the pulse feed of the substrate till the minimum of the dissolved oxygen in this dynamic system is best correlated to quadratic equation. A good indicator of the activity potential of the studied biocatalyst is the slope of this quadratic equation, measured at specific time value (for example t=15 seconds). The slope was calculated from the first derivative of the quadratic equation.
# [4] = target: T3, E. coli YliI aldose dehydrogenase (Escherichia coli, UniProt P75804); assay: Substrate specificity and pH optima of E. coli YliI aldose dehydrogenase (DCPIP method); type: biochemical; conditions: 50 mM substrate, 5 μM PQQ, 10 mM MgCl2
# T3 construct: made in house; host or cells: E. coli BL21(DE3) carrying pET30/YliI; not purified (resting whole cells or cell free lysate), reconstituted with PQQ and MgCl2
# T3 sequence (P75804 21-371 A204V): as above
# Protocol: as §1, §2, §3, §4
# [5] = target: glucose oxidase from A. niger (Aspergillus niger, UniProt P13006); conditions: cited from earlier work
# glucose oxidase from A. niger, sequence (P13006 17-605): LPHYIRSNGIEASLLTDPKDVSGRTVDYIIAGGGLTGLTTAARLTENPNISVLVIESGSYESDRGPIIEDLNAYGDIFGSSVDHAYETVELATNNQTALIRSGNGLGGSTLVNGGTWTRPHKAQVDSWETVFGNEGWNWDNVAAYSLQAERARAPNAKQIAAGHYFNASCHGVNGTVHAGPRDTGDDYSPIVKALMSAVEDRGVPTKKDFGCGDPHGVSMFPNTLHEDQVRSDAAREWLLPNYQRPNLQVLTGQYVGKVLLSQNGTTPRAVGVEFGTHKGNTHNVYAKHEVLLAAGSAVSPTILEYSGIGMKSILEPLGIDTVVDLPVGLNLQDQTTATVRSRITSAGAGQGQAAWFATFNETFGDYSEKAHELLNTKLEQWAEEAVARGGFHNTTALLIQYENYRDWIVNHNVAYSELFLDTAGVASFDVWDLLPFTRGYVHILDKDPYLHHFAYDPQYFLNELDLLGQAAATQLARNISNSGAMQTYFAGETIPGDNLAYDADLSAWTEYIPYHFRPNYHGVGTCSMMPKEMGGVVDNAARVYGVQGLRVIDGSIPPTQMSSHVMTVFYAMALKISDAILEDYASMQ
# [6] = whole cell catalyst BL21 (DE3) pET30/Gcd 5 g/L
# [7] = whole cell catalyst BL21 (DE3) pET30/Gcd 10 g/L
# [8] = whole cell catalyst BL21 (DE3) pET30/Gcd 20 g/L
Compound,"Activity of E. coli BL21(DE3) pET30/Gcd on substrate, lysate ([1]; pH 6.0)","Activity of E. coli BL21(DE3) pET30/Gcd on substrate, resting whole cell ([1]; pH 6.0)","Activity of E. coli BL21(DE3) pET30/Gcd on substrate, lysate ([1]; pH 8.0)","Activity of E. coli BL21(DE3) pET30/Gcd on substrate, resting whole cell ([1]; pH 8.0)","Activity of E. coli BL21(DE3) pET30/Ylil on substrate, resting whole cell ([2]; pH 6.0)","Activity of E. coli BL21(DE3) pET30/Ylil on substrate, resting whole cell ([2]; pH 8.0)","Activity of E. coli BL21(DE3) pET30/Ylil on substrate, lysate ([4]; pH 6.0)","Activity of E. coli BL21(DE3) pET30/Ylil on substrate, lysate ([4]; pH 8.0)","Reaction rate of oxidation by glucose oxidase, glucose as reference (100%) [5]",other results
CC(=O)OC[C@@H]1C[C@@H](O)CC(=O)O1,–,–,–,–,–,–,–,–,–,"Added product concentration above which slight reduction in reaction rates was observed ([1]; E. coli BL21 pET30/Gcd, pH 6.0, in addition of 10 g/L substrate): more than 55 g/L; Added product concentration above which slight reduction in reaction rates was observed ([2]; E. coli BL21 pET30/YliI, pH 8.0, in addition of 10 g/L substrate): more than 35 g/L"
CC(=O)OC[C@@H]1C[C@@H](O)CC(O)O1 (stereo partly drawn),2403 abs[mAU min^−1 mg^−1],2403 abs[mAU min^−1 mg^−1],1013 abs[mAU min^−1 mg^−1],1105 abs[mAU min^−1 mg^−1],270 abs[mAU min^−1 mg^−1],1897 abs[mAU min^−1 mg^−1],273 abs[mAU min^−1 mg^−1],1913 abs[mAU min^−1 mg^−1],–,"Slope of quadratic equation of oxygen consumption after substrate pulse [3, 6]: 38652; Slope of quadratic equation of oxygen consumption after substrate pulse [3, 7]: 87425; Slope of quadratic equation of oxygen consumption after substrate pulse [3, 8]: 163562; Substrate concentration above which slight substrate inhibition to the reaction rate was observed ([1]; E. coli BL21 pET30/Gcd, pH 6.0): above 60 g/L; DCPIP discoloration rate compared with D-glucose or D-galactose as substrate ([1]; E. coli BL21 pET30/Gcd, pH 6.0, 2.5-10 g/L substrate): about two times slower; Substrate concentration above which slight substrate inhibition to the reaction rate was observed ([2]; E. coli BL21 pET30/YliI, pH 8.0): above 40 g/L; DCPIP discoloration rate compared with D-glucose or D-galactose as substrate ([2]; E. coli BL21 pET30/YliI, pH 8.0, 2.5-10 g/L substrate): about two times faster"
O=CC[C@@H](O)[C@H](O)[C@H](O)CO [2-deoxy-D-glucose],–,–,–,–,–,–,–,–,20-30%,–
CO[C@@H]([C@H](O)[C@@H](O)C=O)[C@H](O)CO [4-O-methyl-D-glucose],–,–,–,–,–,–,–,–,15%,–
C[C@@H](O)[C@@H](O)[C@H](O)[C@@H](O)C=O [6-deoxy-D-glucose],–,–,–,–,–,–,–,–,10%,–
O=C[C@H](O)[C@@H](O)[C@H](O)[C@H](O)CO [D-glucose],2830 abs[mAU min^−1 mg^−1],2840 abs[mAU min^−1 mg^−1],1305 abs[mAU min^−1 mg^−1],1260 abs[mAU min^−1 mg^−1],350 abs[mAU min^−1 mg^−1],356 abs[mAU min^−1 mg^−1],210 abs[mAU min^−1 mg^−1],321 abs[mAU min^−1 mg^−1],–,"Slope of quadratic equation of oxygen consumption after substrate pulse [3, 6]: 45813; Slope of quadratic equation of oxygen consumption after substrate pulse [3, 7]: 114771; Slope of quadratic equation of oxygen consumption after substrate pulse [3, 8]: 230631"
OCC(O)CO [glycerol],202 abs[mAU min^−1 mg^−1],215 abs[mAU min^−1 mg^−1],100 abs[mAU min^−1 mg^−1],102 abs[mAU min^−1 mg^−1],85 abs[mAU min^−1 mg^−1],247 abs[mAU min^−1 mg^−1],70 abs[mAU min^−1 mg^−1],235 abs[mAU min^−1 mg^−1],–,–
